For series [1] the following is noted: mouse, in vivo; cited from earlier work.
In series [2] the test system is SKMEL28. Nature of the series: SKMEL28 dose response / cell survival (WST assay). It is filed as cell-based. The note with it: HGF. The method, then: (§1) Cell-proliferation assay. […] The cells were incubated for 60 h.
(§2) Time at 0 hours represents the level of expression without TKI+/−GF. Note that the growth factors induce higher expression of c-FOS in all cell lines and DUSP1 in RT4 at 0 hours, while the addition of both TKI and growth factors induced both c-FOS and DUSP1. […] Note inhibition of c-FOS and DUSP1 is sufficient to kill AU565 cells, while their inhibition in RT4 and SKMEL28 cells restored the TKI sensitivity in the presence of growth factors.

Series [3] deals with Dusp1. Nature of the series: In vitro BCI-resistance screening of randomly mutagenized Dusp1 in BaF3-BA cells. It is filed as cell-based, mouse. The method, then:
To determine the relevant target of BCI more conclusively, we performed in vitro drug-resistant screening to select for BCI-resistant mutations in Dusp1. BaF3-BA cells transfected with an expression library of randomly mutagenized Dusp1 construct were used for the selection of mutations conferring resistance to different concentrations of BCI (FIG. 19D). […] 27 clones that emerged in 1.5 μM of BCI were randomly selected and further analyzed. Dose-response analysis confirmed their resistance to BCI (FIG. 19F). Sequencing of the Dusp1 gene in these clones identified four different substitution mutations (E19R, C24G, V83G, and E112R) and two deletion mutations at the N terminus (Δ2-8 and Δ2-28; FIG. 19G). Because most resistant clones carried two or more mutations, we generated clones with individual mutations for further analysis. […] Furthermore, an unbiased docking of BCI using a structural model of the Dusp1 rhodanese domain identified the putative site to which BCI binds, with a predicted free energy of ΔG=−7.63 (FIG. 18E).
Random mutagenesis and screening of Dusp1 mutants. A Gateway entry clone containing mouse Dusp1 complementary DNA was purchased from the Harvard PalsmiD repository (cat. #MmCD00312825). The Dusp1 coding region was transferred into the retroviral gateway vector pMSCV-Ires-GFP.GW59 by recombination cloning. […] Mutants isolated in the screen were engineered into the pMSCV-Dusp1-Ires-GFP vector, using the QuikChange II XL Site-Directed Mutagenesis Kit (Agilent). The sequence of each point mutation was confirmed by sequence analysis.

The test system of series [4] is phospho-p38. The experiment in a line: Pharmacodynamic phospho-p38 analysis in leukemic mice. It is filed as in vivo, mouse. To be noted: peripheral blood mononuclear cells, 6 h after BCI 10 mg/kg i.p. The method, then:
Pharmacodynamic analysis of Dusp1 and c-Fos targets. Phospho-p38 analysis. Three leukemic mice (8-12 weeks old), which had received transplants of BCR-ABL-expressing Kit+ cells, were injected with BCI (10 mg/kg) by intraperitoneal injection 4 weeks after transplantation. Phospho-p38 levels were quantified in peripheral blood MNCs using the Phosflow kit (BD Biosciences), according to the supplier's instructions. In brief, blood was collected from each mouse before and 6 hours after drug injection. Mononuclear cells were isolated by RBC depletion: RBCs were lysed twice using 4 ml Pharmlyse solution (BD Biosciences) per 100 μl of peripheral blood by mixing and incubated on ice for 5 min. After the second lysis step, cell pellets were washed with 1 ml 2% BSA in PBS followed by fixation using 100 μl of fixation and permeabilization solutions (BD Biosciences) for 20 min at 4° C. in the dark. The pellets were washed with 1 ml of 1×BD Perm/wash buffer. After fixation, the cells were blocked using 300 μl 2% BSA in Perm/wash buffer (BD Biosciences) at room temperature for 20 min. […] Data were acquired by FACS on Fortessa instrument, and the data were analyzed by FlowJo software. The mean fluorescence intensity (MFI) of the IgG control was deducted from the MFI of the experimental samples. […] Quantitative gene-expression analysis of target genes. […]

The subject of series [5] is phospho-p38, p-JNK. Nature of the series: Immunoblot of MAPK signaling in BaF3 and BaF3-BA cells. It is filed as cell-based, mouse. To be noted: with or without IL-3. The protocol: Western blotting. 4-6 million cells were collected, and whole-cell extracts were prepared using lysis buffer supplemented with a protease-inhibitor cocktail (Roche) and phosphatase-inhibitor cocktail 2 (Sigma-Aldrich), as described previously (Azam, M., Seeliger, M. A., Gray, N. S., Kuriyan, J. & Daley, G. Q. Activation of tyrosine kinases by mutation of the gatekeeper threonine. Nat. Struct. Mol. Biol. 15, 1109-1118 (2008)). The proteins were resolved on 10% SDS-PAGE gels and transferred to nitrocellulose membranes (Bio-Rad). Membranes were blocked in TBST with 5% nonfat milk and probed with appropriate antibodies as indicated. Densitometry was carried out using ImageJ software.

Series [6] concerns HCC827 cells. Nature of the series: HCC827 cell survival (WST assay). To be noted: DFC, BCI and erlotinib alone and in combination.
Series [7] relates to K562. Nature of the series: Survival of K562 cells treated with imatinib with or without erythropoietin. To be noted: erythropoietin treatment. It is filed as cell-based, human.
Series [8] deals with Fos, Dusp1, and Zfp36 expression. Nature of the series: Real-time qPCR of Fos, Dusp1 and Zfp36 in BaF3-BA cells. It is filed as cell-based, mouse.
Procedure: Real-time qPCR analysis. Candidate genes picked by microarray analysis were validated by real time qPCR. Total RNA was isolated as described above. The RNA was first subjected to DNase treatment using DNA-free DNase kit (Ambion, Life technologies). 2 μg of total RNA was converted to cDNA with Superscript III first-strand synthesis kit (Life technologies). qPCR reactions were performed with the human gene-specific primers using the SYBR green method and using a Mastercycler RealPlex2 instrument (Eppendorf). All PCR reactions were performed in triplicate and the real-time data was normalized to β-actin expression.
Series [9] deals with CML CD34+ cells from patient CP4. Nature of the series: Mouse model of CML with patient-derived CD34+ cells. It is filed as in vivo, human. The note with it: treatment for 3 weeks; imatinib 75 mg/kg, DFC and BCI 10 mg/kg twice daily i.p. The protocol:
To extend these findings to human cells, we tested the effect of c-FOS and DUSP1 inhibition on the survival of primary CML patient samples (Table 2).
Mouse models of CML with patient-derived cells. 3 million CD34+ cells from CML patient CP4 (described in Table 1) were transplanted into sublethally irradiated 8-week-old NSG mice. 2 weeks after transplantation, leukemic engraftment in bone marrow was determined by FACS using mouse and human specific antibodies against CD45. […] Drugs were diluted in PBS (vehicle) and administered by intraperitoneal injection twice daily. […]

Series [10] has as its system CML patient cells (CP1, CP4). Nature of the series: LTC-IC assay, CML patient samples. It is filed as cell-based, human. The method, then: LTC-IC assay. The LTC-IC assay was performed according to the instruction manual of StemCell Technologies. […] After 24 h, the cells were washed in human long-term culture medium (HLTM; MyeloCult H5100 media containing 1 μM hydrocortisone) and were plated on irradiated MS-5 stromal cells. Cultures were maintained for 5 weeks with weekly half-medium changes. Cells were then harvested, counted, and transferred to methylcellulose-containing media (MethoCult Express, StemCell Technologies) for colony-forming assays. At the end of week 5, adherent and nonadherent cells were isolated and plated in methylcellulose (METHOCULT H4434 classic, stem cell technology) for CFU analysis in triplicate. Plates were incubated at 37° C., and colonies were scored 2 weeks after plating.

The subject of series [11] is AU565. Nature of the series: AU565 dose response / cell survival (WST assay). It is filed as cell-based. To be noted: neuregulin 1-NRG1. The method, then:
as §1, §2

The subject of series [12] is RT4. Nature of the series: RT4 dose response / cell survival (WST assay). It is filed as cell-based. The note with it: EGF. The method, then: as §1, §2
Series [13] deals with BaF3-BA cells. Nature of the series: Cell proliferation/survival assay of BaF3 cells expressing BCR-ABL (WST-1). It is filed as cell-based, mouse. The note with it: inhibitor 500 nM. Background: Formazan colour is commonly taken as a measure of viable cells.
Series [14] relates to EGFR. The note with it: NSCLC patients with activating EGFR mutations; cited from earlier work.

SMILES strings stand for the structures. Entries after “also recorded” stand apart in the source; their conditions may differ. Structures can show the parent of a compound that is named as a salt.

Consider `COc1cc(/C=C/C(=O)C(=Cc2ccc(F)c(F)c2)C(=O)/C=C/c2ccc(O)c(OC)c2)ccc1O` [DFC, difluorinated curcumin], for which the “pharmacokinetics relative to curcumin” value in series [1] is “superior pharmacokinetics”.

As for `CCCS(=O)(=O)Nc1ccc(F)c(C(=O)c2c[nH]c3ncc(Cl)cc23)c1F` [PLX4720], in [2], the “response to PLX4720 in the presence of growth factor” value was “resistance”.

With `O=C1/C(=C/c2ccccc2)C(NC2CCCCC2)c2ccccc21` (stereo not shown) [BCI, (E)-2-benzylidene-3-(cyclohexylamino)-2,3-dihydro-1H-inden-1-one], the “frequency of resistant clones” value in series [3] (1 μM BCI) is listed as 1,200 clones per million cells; in series [3] (1.5 μM BCI), 27 clones per million cells; in [3] (2 μM of BCI) it was “did not yield any resistant clones”. Further, the “increase in phospho-p38 levels” value in series [4] is reported as 4-8 fold. In series [5] (BaF3-BA cells), the phospho-JNK entry is “decreased”. Besides, the phospho-p38 levels result in series [5] (BaF3 and BaF3-BA cells) was “enhanced; also recorded: increased”. For the same compound, in series [6], the cell survival result was “sensitized the cells for erlotinib”.

In the case of `Cc1ccc(NC(=O)c2ccc(CN3CCN(C)CC3)cc2)cc1Nc1nccc(-c2cccnc2)n1` [Imatinib, Imatinib mesylate], in series [7], the “response to imatinib with erythropoietin” value is “conferred imatinib resistance”. Further, in series [8] (imatinib alone), the “expression of Fos, Dusp1 and Zfp36” value is given as “downregulated”. For the same compound, in [8] (imatinib plus growth factor (IL-3)), the “higher expression of Fos, Dusp1 and Zfp36 as compared to BaF3-BA plus imatinib” value is on record as 4-5 fold. In addition, the “effect on human leukemic cells in bone marrow” value in series [9] is “ineffective”. In addition, the “LTC-IC activity as compared to vehicle” value in [10] (CP1 cells) is listed as “increased”; in [10] (sample CP4), “significant decrease”.

Take `CS(=O)(=O)CCNCc1ccc(-c2ccc3ncnc(Nc4ccc(OCc5cccc(F)c5)c(Cl)c4)c3c2)o1` [lapatinib]: the “response to lapatinib in the presence of growth factor” value in [11] and in series [12] was “resistance” in each case.

For the compound `Oc1ccc(-c2nc(-c3ccncc3)c(-c3ccc(F)cc3)[nH]2)cc1` [SB202190], the “imatinib resistance conferred by inhibitor” value in series [13] is “conferred imatinib resistance”.

Regarding `C#Cc1cccc(Nc2ncnc3cc(OCCOC)c(OCCOC)cc23)c1` [erlotinib], the response rate result in series [14] was “approximately 70%”.

Source of the values: US10342767B2, “Therapy for kinase-dependent malignancies” (CHILDREN'S HOSPITAL MEDICAL CENTER, priority 2011, dated 2019).
